Entries after “also recorded” stand apart in the source; their conditions may differ.
Columns and labels:
Format in all cases: cell-based
KCNQ2 mutant R198A = molecular target: T1, KCNQ2 mutant R198A (Homo sapiens, UniProt O43526, R198A); test: KCNQ2 S4 mutant R198A; details: 25 μM NH29 (25 M [sic])
T1 construct: expressed in transfected cells
From the text: (§1) FIGS. 12A-F present the potentiating effect of NH29, an exemplary channel opener compound according to embodiments of the present invention, on selected KCNQ2 mutants. Shown are bar diagrams comparing the potentiating effect of NH29 on native KCNQ2 and KCNQ2 mutants, wherein the mutated amino acids are located at the S1-S2 helix region (FIG. 12A) or S4 helix region (FIG. 12D) and wherein the opener effect is expressed as percent of the control current in the absence of the opener. For comparison, marked as a green line, is the observed current increase of native KCNQ2 by NH29. FIGS. 12B 12C, 12E and 12F present representative traces recorded from CHO cell transfected with the KCNQ2 mutant S122A, S121A, L206C and R201A respectively, before and after external application of 25 μM of NH29 and wherein the membrane potential was stepped from −90 mV holding potential to −40 mV for 1.5 seconds pulse duration.
(§2) Voltage-clamp recordings in CHO cells were performed, using the whole-cell configuration of the patch-clamp technique. Signals were amplified using an Axopatch 200B patch-clamp amplifier (Molecular Devices, Sunnyvale, Calif.), sampled at 2 kHz and filtered at 800 Hz via a 4-pole Bessel low pass filter. […] Series resistances (3-13 MΩ) were compensated (75-90%) and periodically monitored.

TRPV6 channel = molecular target: T2, TRPV6 channel (Homo sapiens, UniProt Q9H1D0); test: TRPV6 currents in transfected CHO cells; details: 25 μM NH29; −80 mV to 100 mV
T2 construct: expressed in transfected cells; host or cells: CHO cells
T2 sequence (Q9H1D0 whole entry): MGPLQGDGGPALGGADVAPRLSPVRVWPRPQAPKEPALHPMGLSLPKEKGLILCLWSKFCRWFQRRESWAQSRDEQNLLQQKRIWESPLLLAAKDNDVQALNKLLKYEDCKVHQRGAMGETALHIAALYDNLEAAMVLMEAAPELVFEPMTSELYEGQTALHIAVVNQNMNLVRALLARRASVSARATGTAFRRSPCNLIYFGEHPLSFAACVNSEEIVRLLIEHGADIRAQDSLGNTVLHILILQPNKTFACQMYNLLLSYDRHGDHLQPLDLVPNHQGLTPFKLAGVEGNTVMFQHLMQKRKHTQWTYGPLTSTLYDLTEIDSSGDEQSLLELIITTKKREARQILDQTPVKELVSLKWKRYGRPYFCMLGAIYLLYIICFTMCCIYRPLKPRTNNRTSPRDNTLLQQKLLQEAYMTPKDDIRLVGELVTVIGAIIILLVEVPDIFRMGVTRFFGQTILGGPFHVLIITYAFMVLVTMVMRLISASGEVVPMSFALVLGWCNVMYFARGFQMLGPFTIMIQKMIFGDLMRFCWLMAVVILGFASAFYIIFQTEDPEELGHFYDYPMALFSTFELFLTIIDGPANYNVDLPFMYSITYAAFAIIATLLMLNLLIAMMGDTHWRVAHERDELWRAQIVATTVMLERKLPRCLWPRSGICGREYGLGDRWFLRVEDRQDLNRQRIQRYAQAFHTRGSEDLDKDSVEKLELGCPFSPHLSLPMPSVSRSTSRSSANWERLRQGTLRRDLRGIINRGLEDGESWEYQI
Description: FIGS. 15A-C present the lack of effect of NH29, an exemplary compound according to some embodiments of the present invention, on TRPV6 channel. FIG. 15A presents superimposed representative traces recorded from a CHO cell transfected with TRPV6 before (marked control) during (marked 165s) and after (marked wash) external application of 25 μM NH29, and wherein the membrane potential was stepped from −80 mV to 100 mV for 40 seconds pulse duration (protocol shown in upper panel). The current amplitude was measured at peak current points (marked a 1 at −80 mV and a2 at +100 mV) and plotted as a function of recording time (FIGS. 15B and 15C respectively).
Chinese hamster ovary (CHO) cells were grown in Dulbecco's modified Eagle's medium (DMEM) supplemented with 2 mM glutamine, 10% fetal calf serum and antibiotics. Briefly, 40,000 cells seeded on poly-D-lysine-coated glass coverslips (13 mm diameter) in a 24-multiwell plate were transfected with pIRES-CD8 (0.5 μg) as a marker for transfection, and with Kv7.2 (0.5 μg) and Kv7.3 (0.5 μg) or TRPV1 […] or TRPV6 […].
For electrophysiology, transfected cells were visualized approximately 40 hours following transfection, using anti-CD8 antibody-coated beads. Transfection was performed using Fugene 6 (Roche, Indianapolis Ind., USA) according to the manufacturer's protocol. […]

[1] = molecular target: T3, TRPV1 channels in Dorsal Root Ganglions (DRG) (Rattus norvegicus, UniProt O35433); test: TRPV1 currents in DRG neurons activated by capsaicin; details: 5 μM; 0.5 μM capsaicin; reversible
T3 construct: endogenous in cells; host or cells: primary rat dorsal root ganglion neurons
T3 sequence (O35433 whole entry): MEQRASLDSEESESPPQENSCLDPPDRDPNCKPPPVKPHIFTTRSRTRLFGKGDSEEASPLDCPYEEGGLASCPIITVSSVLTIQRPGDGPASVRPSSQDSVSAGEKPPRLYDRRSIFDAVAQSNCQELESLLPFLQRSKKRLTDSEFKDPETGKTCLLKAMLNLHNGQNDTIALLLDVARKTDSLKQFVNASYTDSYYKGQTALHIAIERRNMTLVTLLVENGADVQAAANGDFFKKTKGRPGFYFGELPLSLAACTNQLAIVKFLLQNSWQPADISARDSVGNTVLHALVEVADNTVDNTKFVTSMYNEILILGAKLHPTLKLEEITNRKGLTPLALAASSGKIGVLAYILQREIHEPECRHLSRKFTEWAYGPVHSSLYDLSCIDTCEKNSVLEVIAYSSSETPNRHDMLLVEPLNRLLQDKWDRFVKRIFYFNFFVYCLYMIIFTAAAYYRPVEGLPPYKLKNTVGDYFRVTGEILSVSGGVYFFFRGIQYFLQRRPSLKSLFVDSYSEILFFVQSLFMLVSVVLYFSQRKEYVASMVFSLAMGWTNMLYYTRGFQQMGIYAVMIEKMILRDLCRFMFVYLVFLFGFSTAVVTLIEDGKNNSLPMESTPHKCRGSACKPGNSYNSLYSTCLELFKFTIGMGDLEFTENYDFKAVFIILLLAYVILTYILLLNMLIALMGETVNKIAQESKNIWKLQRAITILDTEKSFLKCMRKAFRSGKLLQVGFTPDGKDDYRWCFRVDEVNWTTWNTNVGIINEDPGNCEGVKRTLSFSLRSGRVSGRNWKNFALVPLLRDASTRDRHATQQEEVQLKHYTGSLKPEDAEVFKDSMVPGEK
Description: FIG. 14 presents the inhibitory effect of NH29, an exemplary compound according to some embodiments of the present invention, on TRPV1 channels in Dorsal Root Ganglions (DRG).
For dorsal root ganglion (DRG) neuronal cultures, ganglia were dissected from 2-5 day-old Sprague-Dawley rats killed by decapitation. DRGs were placed in Hank's balanced saline solution (HBSS) and prepared by enzymatic dissociation. Briefly, after 30 minutes incubation in 5 mg/ml dispase, 2 mg/ml collagenase type 1A and 0.1 mg/ml DNase (Invitrogen/Gibco, Carlsbad, Calif.) in Ca^2+ and Mg^2+-free HBSS, the ganglia were mechanically triturated with a fire-polished glass Pasteur pipette. The ganglia were then centrifuged for 5 minutes at 80×g and resuspended in DMEM supplemented with 2 mM L-glutamine, 16.5 mM NaHCO3, 6 g/l glucose, 5 ml penicillin/streptomycin and 10% fetal calf serum.
For electrophysiological recording, dissociated neurons were plated on 13 mm glass coverslips, previously coated with poly-D-lysine (1 mg/ml) and laminin (10 μg/ml) and used at 1-2 days in culture.

Kv7.2 = molecular target: T4, Kv7.2 (Homo sapiens, UniProt O43526); test: Kv channel selectivity, Xenopus oocytes: Kv7.2; details: −40 mV
T4 construct: expressed in transfected cells; host or cells: Xenopus oocytes
T4 sequence (O43526 whole entry): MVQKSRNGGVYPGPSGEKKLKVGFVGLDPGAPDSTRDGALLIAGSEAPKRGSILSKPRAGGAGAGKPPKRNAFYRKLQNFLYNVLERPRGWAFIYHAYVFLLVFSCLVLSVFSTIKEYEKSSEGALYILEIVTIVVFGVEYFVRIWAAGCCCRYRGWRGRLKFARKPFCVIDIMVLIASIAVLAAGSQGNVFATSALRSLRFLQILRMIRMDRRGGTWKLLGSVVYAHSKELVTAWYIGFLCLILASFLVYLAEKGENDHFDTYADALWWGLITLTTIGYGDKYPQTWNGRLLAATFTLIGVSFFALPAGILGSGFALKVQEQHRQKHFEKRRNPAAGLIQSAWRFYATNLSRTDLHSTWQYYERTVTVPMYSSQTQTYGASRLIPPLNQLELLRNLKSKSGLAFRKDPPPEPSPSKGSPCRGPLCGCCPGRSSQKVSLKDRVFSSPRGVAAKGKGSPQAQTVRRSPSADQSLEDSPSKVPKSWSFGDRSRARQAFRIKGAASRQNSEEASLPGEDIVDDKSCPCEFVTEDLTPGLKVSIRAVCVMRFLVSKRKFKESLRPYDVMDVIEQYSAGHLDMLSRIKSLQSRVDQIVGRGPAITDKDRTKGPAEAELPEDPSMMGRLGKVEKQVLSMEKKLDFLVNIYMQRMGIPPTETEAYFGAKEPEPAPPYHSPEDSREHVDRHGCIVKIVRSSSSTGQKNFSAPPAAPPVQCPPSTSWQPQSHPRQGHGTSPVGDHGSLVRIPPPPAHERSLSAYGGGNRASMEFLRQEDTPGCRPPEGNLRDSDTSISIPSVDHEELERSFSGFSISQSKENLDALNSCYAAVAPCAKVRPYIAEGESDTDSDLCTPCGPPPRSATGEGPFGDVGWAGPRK
Description: (§3) Voltage-clamp measurements in Xenopus oocytes were performed as previously described.
(§4) The selectivity of NH29 on other relevant Kv channels expressed in Xenopus oocytes was also studied, and the results are summarized in Table 3 below. The specificity of NH29 at 25 μM and 50 μM towards various Kv channels was tested in Xenopus oocytes, except for Kv1.2 which was checked in transfected CHO cells. The current amplitude of the various Kv channels was tested at the indicated voltages and the effect of the drugs was expressed as fold of the control amplitude measured under the same conditions in the absence of the drug. The data in Table 3 are expressed as mean±SEM of 5-7 separate experiments.

Kv 4.3 = molecular target: T5, Kv 4.3 (Homo sapiens, UniProt Q9UK17); test: Kv channel selectivity, Xenopus oocytes: Kv4.3; details: 25 μM, +30 mV
T5 construct: expressed in transfected cells; host or cells: Xenopus oocytes
T5 sequence (Q9UK17 whole entry): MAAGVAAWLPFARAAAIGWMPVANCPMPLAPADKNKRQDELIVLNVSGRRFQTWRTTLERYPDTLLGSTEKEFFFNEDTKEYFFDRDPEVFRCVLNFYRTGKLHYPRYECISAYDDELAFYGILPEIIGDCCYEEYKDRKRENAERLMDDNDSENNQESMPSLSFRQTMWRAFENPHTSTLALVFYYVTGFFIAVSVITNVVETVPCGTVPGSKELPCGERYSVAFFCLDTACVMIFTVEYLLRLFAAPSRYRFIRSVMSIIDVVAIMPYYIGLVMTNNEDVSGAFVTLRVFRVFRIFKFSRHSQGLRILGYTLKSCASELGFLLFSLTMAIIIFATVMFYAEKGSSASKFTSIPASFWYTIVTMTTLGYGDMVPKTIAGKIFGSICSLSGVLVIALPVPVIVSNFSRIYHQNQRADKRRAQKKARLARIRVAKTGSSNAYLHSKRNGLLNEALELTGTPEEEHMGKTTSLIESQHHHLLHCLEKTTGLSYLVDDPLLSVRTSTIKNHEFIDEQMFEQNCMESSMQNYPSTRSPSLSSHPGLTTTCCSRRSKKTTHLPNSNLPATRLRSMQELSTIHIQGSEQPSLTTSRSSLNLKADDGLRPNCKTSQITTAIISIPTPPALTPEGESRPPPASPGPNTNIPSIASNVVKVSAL
Description: as §3, §4

KCNQ2 mutant L197G = molecular target: T6, KCNQ2 mutant L197G (Homo sapiens, UniProt O43526, L197G); test: KCNQ2 S4 mutant L197G; details: 25 μM NH29 (25 M [sic])
T6 construct: expressed in transfected cells
T6 sequence (O43526 whole entry L197G): as the sequence (O43526 whole entry) above, with L197G counted along it
From the text: as §1, §2

homomeric KCNQ3 channels = molecular target: T7, homomeric KCNQ3 channels (Homo sapiens, UniProt O43525); test: Homomeric KCNQ3 channels; details: 25 μM; very small currents through homomeric KCNQ3
T7 construct: expressed in transfected cells
T7 sequence (O43525 whole entry): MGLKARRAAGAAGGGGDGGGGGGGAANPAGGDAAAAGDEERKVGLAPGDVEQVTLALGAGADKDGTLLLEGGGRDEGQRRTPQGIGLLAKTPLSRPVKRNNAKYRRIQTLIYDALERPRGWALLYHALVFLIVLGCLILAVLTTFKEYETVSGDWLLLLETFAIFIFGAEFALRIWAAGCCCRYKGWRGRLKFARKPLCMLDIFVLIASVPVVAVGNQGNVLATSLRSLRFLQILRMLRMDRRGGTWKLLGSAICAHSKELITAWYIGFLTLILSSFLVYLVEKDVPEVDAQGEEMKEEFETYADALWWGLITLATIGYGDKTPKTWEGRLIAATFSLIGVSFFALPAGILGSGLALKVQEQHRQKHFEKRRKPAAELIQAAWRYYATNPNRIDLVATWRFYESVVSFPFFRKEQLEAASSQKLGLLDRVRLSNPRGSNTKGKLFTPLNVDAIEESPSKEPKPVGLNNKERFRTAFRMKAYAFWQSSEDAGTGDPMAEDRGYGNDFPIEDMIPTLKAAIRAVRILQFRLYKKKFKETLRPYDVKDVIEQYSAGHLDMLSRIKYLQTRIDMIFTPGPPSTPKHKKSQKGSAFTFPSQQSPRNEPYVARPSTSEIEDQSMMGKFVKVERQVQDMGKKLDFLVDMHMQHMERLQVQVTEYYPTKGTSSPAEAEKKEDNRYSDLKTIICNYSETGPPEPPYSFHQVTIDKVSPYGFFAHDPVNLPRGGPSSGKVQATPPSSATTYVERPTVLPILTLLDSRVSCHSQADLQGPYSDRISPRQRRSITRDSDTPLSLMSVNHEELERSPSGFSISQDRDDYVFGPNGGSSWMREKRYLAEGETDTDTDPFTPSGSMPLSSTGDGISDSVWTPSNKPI
Description: FIG. 8 presents a bar-graph comparing the potentiating effect of 25 μM of Compound NH29 on various KCNQ subunits and mutants, wherein the opener effect is expressed as percent of the control current in the absence of the opener;
FIG. 8 presents a bar-graph comparing the potentiating effect of 25 μM of Compound NH29 on various KCNQ subunits and mutants, wherein the opener effect is expressed as percent of the control current in the absence of the opener.

T1 sequence (O43526 whole entry R198A): as the sequence (O43526 whole entry) above, with R198A counted along it

With `O=C(Cc1cc([N+](=O)[O-])cc([N+](=O)[O-])c1Nc1c(Cl)cc([N+](=O)[O-])cc1Cl)NCCO` [NH29] the “fold enhancement of current” value (KCNQ2 mutant R198A) was 1.6 fold, the “modulation of TRPV6 current” value (TRPV6 channel) was “lack of modulation; also recorded: no similar inhibition of TRPV6 was observed” and the “inhibition of TRPV1 current” value [1] was “almost completely”. The Fold current amplitude (Kv7.2; 25 μM) was 3.5 ± 0.4 fold, the Fold current amplitude (Kv7.2; 50 μM) was 6.8 ± 0.7 fold and the Fold current amplitude (Kv 4.3) was 1.1 ± 0.04 fold. For the same compound, the “fold enhancement of current” value (KCNQ2 mutant L197G) was 1.5 fold and the “opening activity on homomeric KCNQ3 channels” value (homomeric KCNQ3 channels) was “no opening activity was detected”.

From patent US9403756B2, “N-phenyl anthranilic acid derivatives and uses thereof” (Ramot at Tel-Aviv University Ltd., priority 2007, dated 2016)
